Values quoted from earlier work as cited in patent US12127976B2, “Eye-mountable therapeutic devices, and associated systems and methods” (Twenty Twenty Therapeutics LLC, priority 2018, dated 2024).
Where a name gives a salt, the structure may show the parent alone.

Key:
[1] = in aqueous humor
[2] = after topical administration; formulated as salts

Structure (SMILES) | estimated half-life [1] [h] | time at which the maximum effect can be detected [2]
O=C(O)CCC/C=C\C[C@@H]1[C@@H](CC[C@@H](O)CCc2ccccc2)[C@H](O)C[C@@H]1O [latanoprost acid] | ~2.8 | 
CC(C)NCC(O)COc1ccc(CCOCC2CC2)cc1 (stereo not drawn) [betaxolol] |  | about 2 hours
CC(C)(C)NC[C@H](O)COc1nsnc1N1CCOCC1 [timolol maleate] |  | about 2 hours
